Laboratory results published in the supplement of paper PMC11208160.

Experiment: recombinant UMI read abundance after kanamycin selection (control-corrected) (log10(CPM+1)); higher = more efficient recombination; extreme values may be limits of the assay; sequences stand for … in AGTGCAGAGAAAATCGGCCAGTTTTCTCTGCCTGCAGTCCGCATGCCGTGGGACCCCTTGGGTTCTAACCTGTTGCCTAGATTTATGCAGCGGACTGCCTTTCTCCCAAAGTGATAAACCGG…AGGTTGGTTTCACT; site = the 11-nt donor
How it was run: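 Counts of recombinant UMIs were reported as log10(CPM+1). Before that, they were converted to CPM, averaged over replicates and scaled using control-derived factors. They came from PCR across the donor–target junction after Escherichia coli carrying the pair library and target plasmid was plated on IPTG (0.07 mM) plus kanamycin, or unselected, in two replicates each.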
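Note: IS621 bridge recombinase in Escherichia coli cells against a fixed T5 target plasmid.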

| Sequence | recombinant UMI read abundance (log10) |
| --- | --- |
| GCCCGCTCATGGACCGGTTTTCCCGGTAATCCGTATTTGAG (site GCCCGCTCTCT) | 0.704 |
| GCCCGTTCATGGACCGGTTTTCCCGGTAATCCGTATTTGAG (site GCCCGTTCTCT) | 2.23 |
| GCCCTCCCATGGACCGGTTTTCCCGGTAATCCGTATTTGTG (site GCCCTCCCTCA) | 0.0428 |
| GCCCTTTCATGGACCGGTTTTCCCGGTAATCCGTATTTGCT (site GCCCTTTCTAG) | 1.67 |
| GCCGAACCATGGACCGGTTTTCCCGGTAATCCGTATTTGGG (site GCCGAACCTCC) | 0.0289 |
| GCCGATGCATGGACCGGTTTTCCCGGTAATCCGTATTTGGC (site GCCGATGCTGC) | 0.846 |
| GCCGCGCCATGGACCGGTTTTCCCGGTAATCCGTATTTGTA (site GCCACGCCTTA) | 0.00924 |
| GCCGCGCCATGGACCGGTTTTCCCGGTAATCCGTATTTGTA (site GCCCCGCCTTA) | 0.00531 |
| GCCGCGCCATGGACCGGTTTTCCCGGTAATCCGTATTTGTA (site GCCGCGCCTTA) | 0.234 |
| GCCGCGCCATGGACCGGTTTTCCCGGTAATCCGTATTTGTA (site GCCTCGCCTTA) | 0.18 |
| GCCGCTCCATGGACCGGTTTTCCCGGTAATCCGTATTTGGT (site GCCGCTCCTAC) | 0.0147 |
| GCCGGTCCATGGACCGGTTTTCCCGGTAATCCGTATTTGCA (site ACCGGTCCTTG) | 0 |
| GCCGGTCCATGGACCGGTTTTCCCGGTAATCCGTATTTGCA (site CCCGGTCCTTG) | 0 |
| GCCGGTCCATGGACCGGTTTTCCCGGTAATCCGTATTTGCA (site GCCGGTCCTTG) | 0 |
| GCCGGTCCATGGACCGGTTTTCCCGGTAATCCGTATTTGCA (site TCCGGTCCTTG) | 0 |
| GCCGTATCATGGACCGGTTTTCCCGGTAATCCGTATTTGCA (site ACAGTATCTTG) | 2.87 |
| GCCGTATCATGGACCGGTTTTCCCGGTAATCCGTATTTGCA (site GCCGTATCTTG) | 2.22 |
| GCCTAAACATGGACCGGTTTTCCCGGTAATCCGTATTTGGT (site GCCTAAACTAC) | 1.07 |
| GCCTAATCATGGACCGGTTTTCCCGGTAATCCGTATTTGGC (site GCCTAATCTGC) | 0.963 |
| GCCTATCCATGGACCGGTTTTCCCGGTAATCCGTATTTGAC (site GCCTATCCTGT) | 0 |
| GCCTCGCCATGGACCGGTTTTCCCGGTAATCCGTATTTGGT (site GCCTCGCCTAC) | 0 |
| GCCTCTACATGGACCGGTTTTCCCGGTAATCCGTATTTGCC (site GCCTCTACTGG) | 1.37 |
| GCCTGGCCATGGACCGGTTTTCCCGGTAATCCGTATTTGCT (site GCCTGGCCTAG) | 0 |
| GCCTGTGCATGGACCGGTTTTCCCGGTAATCCGTATTTGAC (site GCCTGTGCTGT) | 0.472 |
| GCGAAAACATGGACCGGTTTTCCCGGTAATCCGTATTTGCA (site GCGAAAACTAG) | 0 |

| Sequence | recombinant UMI read abundance (log10) |
| --- | --- |
| GCGAAAACATGGACCGGTTTTCCCGGTAATCCGTATTTGCA (site GCGAAAACTCG) | 1.4 |
| GCGAAAACATGGACCGGTTTTCCCGGTAATCCGTATTTGCA (site GCGAAAACTGG) | 0 |
| GCGAAAACATGGACCGGTTTTCCCGGTAATCCGTATTTGCA (site GCGAAAACTTG) | 0.929 |
| GCGAAATCATGGACCGGTTTTCCCGGTAATCCGTATTTGCT (site GCGAAAACTAG) | 0 |
| GCGAAATCATGGACCGGTTTTCCCGGTAATCCGTATTTGCT (site GCGAAACCTAG) | 0 |
| GCGAAATCATGGACCGGTTTTCCCGGTAATCCGTATTTGCT (site GCGAAAGCTAG) | 0 |
| GCGAAATCATGGACCGGTTTTCCCGGTAATCCGTATTTGCT (site GCGAAATCTAG) | 1.62 |
| GCGAACCCATGGACCGGTTTTCCCGGTAATCCGTATTTGAT (site GCGAACCCTAT) | 0.903 |
| GCGAACCCATGGACCGGTTTTCCCGGTAATCCGTATTTGGG (site GCGAAACCTCC) | 0.013 |
| GCGAACCCATGGACCGGTTTTCCCGGTAATCCGTATTTGGG (site GCGAACCCTCC) | 0.0373 |
| GCGAACCCATGGACCGGTTTTCCCGGTAATCCGTATTTGGG (site GCGAAGCCTCC) | 0.00885 |
| GCGAACCCATGGACCGGTTTTCCCGGTAATCCGTATTTGGG (site GCGAATCCTCC) | 0.0113 |
| GCGAAGACATGGACCGGTTTTCCCGGTAATCCGTATTTGCT (site GCGAAAACTAG) | 1.01 |
| GCGAAGACATGGACCGGTTTTCCCGGTAATCCGTATTTGCT (site GCGAACACTAG) | 0.298 |
| GCGAAGACATGGACCGGTTTTCCCGGTAATCCGTATTTGCT (site GCGAAGACTAG) | 1.92 |
| GCGAAGACATGGACCGGTTTTCCCGGTAATCCGTATTTGCT (site GCGAATACTAG) | 0 |
| GCGAAGACATGGACCGGTTTTCCCGGTAATCCGTATTTGGG (site GCGAAGACTCC) | 0.479 |
| GCGAAGACATGGACCGGTTTTCCCGGTAATCCGTATTTGGG (site GCGAAGCCTCC) | 0 |
| GCGAAGACATGGACCGGTTTTCCCGGTAATCCGTATTTGGG (site GCGAAGGCTCC) | 0.287 |
| GCGAAGACATGGACCGGTTTTCCCGGTAATCCGTATTTGGG (site GCGAAGTCTCC) | 0.439 |
| GCGAAGCCATGGACCGGTTTTCCCGGTAATCCGTATTTGGA (site GCGAAGCCTAC) | 0.00917 |
| GCGAAGCCATGGACCGGTTTTCCCGGTAATCCGTATTTGGA (site GCGAAGCCTCC) | 0.00526 |
| GCGAAGCCATGGACCGGTTTTCCCGGTAATCCGTATTTGGA (site GCGAAGCCTGC) | 0 |
| GCGAAGCCATGGACCGGTTTTCCCGGTAATCCGTATTTGGA (site GCGAAGCCTTC) | 0.24 |
| GCGAAGCCATGGACCGGTTTTCCCGGTAATCCGTATTTGGC (site GCGAAGCCTAC) | 0.0106 |

| Sequence | recombinant UMI read abundance (log10) |
| --- | --- |
| GCGAAGCCATGGACCGGTTTTCCCGGTAATCCGTATTTGGC (site GCGAAGCCTCC) | 0 |
| GCGAAGCCATGGACCGGTTTTCCCGGTAATCCGTATTTGGC (site GCGAAGCCTGC) | 0 |
| GCGAAGCCATGGACCGGTTTTCCCGGTAATCCGTATTTGGC (site GCGAAGCCTTC) | 0.664 |
| GCGACACCATGGACCGGTTTTCCCGGTAATCCGTATTTGTC (site GCGACACCTGA) | 0 |
| GCGACATCATGGACCGGTTTTCCCGGTAATCCGTATTTGTG (site GCGACATCTCA) | 1.78 |
| GCGACCACATGGACCGGTTTTCCCGGTAATCCGTATTTGTT (site GCGACCACTAA) | 0.823 |
| GCGACGCCATGGACCGGTTTTCCCGGTAATCCGTATTTGTA (site GCAACGCCTTA) | 0.542 |
| GCGACGCCATGGACCGGTTTTCCCGGTAATCCGTATTTGTA (site GCCACGCCTTA) | 0.0222 |
| GCGACGCCATGGACCGGTTTTCCCGGTAATCCGTATTTGTA (site GCGACGCCTTA) | 0.398 |
| GCGACGCCATGGACCGGTTTTCCCGGTAATCCGTATTTGTA (site GCTACGCCTTA) | 0.019 |
| GCGACGGCATGGACCGGTTTTCCCGGTAATCCGTATTTGTC (site GCGACGGCTGA) | 1.84 |
| GCGAGCACATGGACCGGTTTTCCCGGTAATCCGTATTTGGC (site GCGAGCACTGC) | 3.27 |
| GCGAGCGCATGGACCGGTTTTCCCGGTAATCCGTATTTGTC (site GCGAGCGCTGA) | 2.69 |
| GCGAGGCCATGGACCGGTTTTCCCGGTAATCCGTATTTGGG (site GCGAAGCCTCC) | 0.0133 |
| GCGAGGCCATGGACCGGTTTTCCCGGTAATCCGTATTTGGG (site GCGACGCCTCC) | 0.022 |
| GCGAGGCCATGGACCGGTTTTCCCGGTAATCCGTATTTGGG (site GCGAGGCCTCC) | 0.0117 |
| GCGAGGCCATGGACCGGTTTTCCCGGTAATCCGTATTTGGG (site GCGATGCCTCC) | 0.0249 |
| GCGAGGGCATGGACCGGTTTTCCCGGTAATCCGTATTTGCC (site GCGAGGGCTGG) | 2.23 |
| GCGATAGCATGGACCGGTTTTCCCGGTAATCCGTATTTGTC (site GCGATAGCTGA) | 2.34 |
| GCGCCCACATGGACCGGTTTTCCCGGTAATCCGTATTTGGA (site GCGCCCACTTC) | 0.365 |
| GCGCGCACATGGACCGGTTTTCCCGGTAATCCGTATTTGCT (site GCGCGCACTAG) | 2.68 |
| GCGCTGACATGGACCGGTTTTCCCGGTAATCCGTATTTGAG (site GCGCTGACTCT) | 1.62 |
| GCGGAAACATGGACCGGTTTTCCCGGTAATCCGTATTTGCT (site GCGAAAACTAG) | 0 |
| GCGGAAACATGGACCGGTTTTCCCGGTAATCCGTATTTGCT (site GCGCAAACTAG) | 1.5 |
| GCGGAAACATGGACCGGTTTTCCCGGTAATCCGTATTTGCT (site GCGGAAACTAG) | 2.19 |
